Assay results taken from patent US12516027B2, “Lappaconitine derivative and use thereof” (priority 2020, dated 2026).

What was measured:
MSCs = assay: Osteoblast differentiation of MSCs with kinase inhibitor combination (Alizarin Red); type: cell-based, human; conditions: QG3030 1 μM + kinase inhibitor 1 μM, 3 weeks, compared to QG3030-alone group
Protocol: To further study the mechanism by which QG3030 differentiates MSCs into osteoblasts, an experiment was performed using a kinase inhibitor.
After MSCs were cultured, the MSCs were simultaneously treated with a kinase inhibitor (1 μM) and QG3030 (1 μM). The next day, the medium was exchanged, and the MSCs were simultaneously treated again with the kinase inhibitor and QG3030. This procedure was repeated for 3 weeks, and the MSCs were then stained with Alizarin Red.

ERK [1] = assay: Level of phosphorylated ERK (pERK) in MSCs over time; type: cell-based, human
Protocol: Accordingly, the level of the phosphorylated ERK according to time elapsed after MSCs were treated with QG3030 was determined.
Also, to determine whether QG3030 induces ERK phosphorylation for a long period, MSCs were treated with various concentrations (0.001, 0.01, and 0.1 μM) of QG3030, and the level of phosphorylated ERK (pERK) was checked after 7 days and 14 days.

RUNX2 [2] = assay: Change in expression of RUNX2 in MSCs (antibody staining, fluorescence microscope); type: cell-based, human; conditions: 0.001 μM, once a day for 7 and 14 days; increased with increasing concentration
Source text: (§1) Runt-related transcription factor 2 (RUNX2; core-binding factor alpha, Cbfa1) is the most important transcriptional regulatory factor for osteogenesis, and is known to be involved in osteoblast differentiation, matrix generation, and mineralization during osteogenesis (Bruderer M, et al., Eur Cell Mater. 2014). Also, RUNX2 itself may be regulated by a bone morphogenetic protein (BMP), which is a type of cytokine (Sun J, et al., Mol Med Rep. 2015). Accordingly, it was confirmed whether QG3030 promotes the expression of osteogenesis-related specific factors to induce osteogenesis.
(§2) MSCs were seeded in a 24-well plate at a concentration of 3×10^4 cells/well, and cultured for 24 hours. From the next day, the MSCs were treated with different concentrations (0.001 μM, 0.01 μM, and 0.1 μM) of QG3030 once a day for 7 days and 14 days. After the experiment was completed, the MSCs were stained with RUNX2 and BMP-2 antibodies, and observed using a fluorescence microscope.

osteocalcin = assay: Change in expression of osteocalcin in MSCs (antibody staining, fluorescence microscope); type: cell-based, human; conditions: 0.001 μM, within 7 days
Protocol: Osteocalcin is expressed only in osteoblasts (Lee et al., Cell 2007), and is used as a biomarker useful for osteogenesis (Bharadwaj et al., Osteoporosis International., 2009).
An experiment was performed in the same manner as described in Experimental Example 1-2, and MSCs were then stained with an osteocalcin antibody, and observed using a fluorescence microscope.

ERK, Akt, WNK1 = assay: Phosphokinase antibody array in MSCs; type: cell-based, human; conditions: 1 μM, 24 hours, compared to control DMSO
Protocol: To study a mechanism by which QG3030 differentiates MSCs into osteoblasts, related signaling was investigated.
MSCs cultured in an experimental DMEM were treated with QG3030 (1 μM) or the control compound (DMSO), and cultured for 24 hours. The cells were recovered, and an experiment was then performed according to a method specified in a phosphokinase antibody array kit (R&D Systems) containing antibodies that specifically recognize phosphorylated forms of 43 kinases. Then, samples were analyzed using an ImageJ (NIH, USA) program.

human MSCs = assay: Osteocytic differentiation potential in MSCs (Alizarin Red and Von Kossa staining); type: cell-based; conditions: 0.1 μM, cultured for 3 weeks, like OIM positive control
Protocol: Osteoblasts involved in the osteogenesis are formed by differentiating mesenchymal stem cells (MSCs) using external stimuli and transcription factors involved in various signaling pathways (Garg et al., Orthop Surg. 2017). Accordingly, an experiment was performed to check whether QG3030 was able to induce the differentiation of human MSCs into osteoblasts.
MSCs from normal humans were purchased from the American Type Culture Collection (ATCC, U.S.A), and cultured in an MSC-specific culture medium (Gibco). The cultured cells were digested with trypsin, centrifuged, and then seeded in a 24-well plate at a concentration of 3×10^4 cells/well. The next day, the MSC culture medium was exchanged with a DMEM (DMEM/10% FBS/penicillin/streptomycin) as an experimental medium, and the cells were treated with QG3030 alone (0.1 μM) or OIM (osteogenesis-inducing medium; StemPro Osteogenesis Differentiation Kit, ThermoFisher Scientific Inc.) as the positive control. Thereafter, the cell culture medium was exchanged with a fresh DMEM every day, treated with QG3030 or OIM, and then cultured for 3 weeks. After the culture was completed, the cells were stained with Alizarin Red for detection of calcium and Von Kossa for detection of mineral production.

RUNX2 [3] = assay: RUNX2 expression in MSCs with QG3030 and ERK inhibitor PD98059; type: cell-based, human; conditions: same at 24 hours
Protocol: (§3) ERK may induce the phosphorylation of RUNX2 to increase transcriptional activity and may be involved in stability to increase an amount of RUNX2 protein (Greenblatt et al., MB, Annu Rev Cell Dev Biol. 2013). Therefore, an increase in ERK phosphorylation by QG3030 may induce RUNX2 expression so that QG3030 can be involved in the differentiation of MSCs into osteoblasts. To verify this, an expression level of RUNX2 was determined after MSCs were treated with a combination of QG3030 (0.1 μM) and the ERK inhibitor PD98059 (50 μM).

[4] = test system: ovariectomized (OVX) mice; assay: Animal model of osteoporosis, ovariectomized (OVX) mice; type: in vivo
Source text: An ability of QG3030 to treat osteoporosis was confirmed in an animal model of ovariectomized (OVX) mice commonly used as an animal model of osteoporosis.
As the positive controls, parathyroid hormone (PTH)-based Forteo (Eli Lilly) used as an osteoporosis therapeutic agent through an osteogenesis-promoting mechanism, and alendronate-based Fosamax (Merck) serving as a bone resorption inhibitor were subcutaneously administered. As the negative control, water (H2O) was orally administered, and QG3030 was orally administered at a concentration of 5 or 30 mg/kg (FIG. 9A). After the drug was administered daily for 10 weeks, the bone mineral density (BMD) was measured.
In Table 2, BMD represents bone mineral density, TV represents total volume, BV represents bone volume, Tb.Th represents trabecular thickness, and Tb.N represents trabecular number.

BMP-2 = assay: Change in expression of BMP-2 in MSCs (antibody staining, fluorescence microscope); type: cell-based, human; conditions: 0.001 μM, once a day for 7 and 14 days; increased with increasing concentration
Source text: as §1, §2

ERK [5] = assay: Phosphorylated ERK in MSCs with QG3030 and ERK inhibitor PD98059; type: cell-based, human
Protocol: as §3

Sprague Dawley (SD) rat = assay: Animal model of bone fracture, ilium bone defect; type: in vivo
Protocol: The ilium of a Sprague Dawley (SD) rat was subjected to drilling with a diameter of 2 mm to induce a bone defect, and QG3030 (6, 30, and 150 μg/10 μL) mixed with an excipient (collagen sponge, CollaCote®) was implanted into a bone defect site to evaluate an osteoanagenic effect (FIG. 11).
To statistically quantify the osteoanagenic capacity of QG3030, a degree of osteogenesis was realized with a 3-D image, and a region of interest (ROI) was set to analyze parameters such as bone volume/total volume (BV/TV; %), trabecular thickness (Tb.Th; mm), trabecular number (Tb.N; 1/mm), and trabecular separation (Tb.Sp; mm).

[6] = OVX mice, 5 mg/kg oral, daily for 10 weeks
[7] = OVX mice, 30 mg/kg oral, daily for 10 weeks
[8] = OVX mice, 5 or 30 mg/kg oral, daily for 10 weeks
[9] = implanted in collagen sponge at bone defect site, QG3030 low, medium and high, BMP2 1 ug/10 uL
[10] = OVX mice, positive control, subcutaneous, daily for 10 weeks

## CCN1C[C@]2(O)CC[C@H](OC)C34C1C(C[C@@H]32)[C@]1(O)C[C@H](OC)[C@@H]2C(=O)C(=O)[C@H]4[C@@H]21 [QG3030, (2aR,2a1S,3S,4aS,8S,11S,11bS,12S)-6-ethyl-4a,8-dihydroxy-3,11-dimethoxy-tetradecahydro-8,11a,5-(epiethane[1,1,2]triyl)cyclopenta[7,1]indeno[5,4-b]azocin-1,2-dione]
MSCs
  osteoblast differentiation ability of QG3030 (Alizarin Red) in combination with inhibitor of ERK, P38 or Akt: inhibited
ERK [1]; 0.001, 0.01 and 0.1 μM, after 7 days and 14 days
  level of phosphorylated ERK (pERK): significantly increased
ERK [1]; after 24 hours after treatment
  level of phosphorylated ERK (pERK): increased
ERK [1]; low concentration, 7 days, lasted until 14 days
  level of phosphorylated ERK (pERK) compared with positive control (OIM): greater than that of the positive control
ERK [1]; within 30 minutes after treatment
  level of phosphorylated ERK (pERK): significantly increased
RUNX2 [2]
  expression of RUNX2: strongly induced the expression
osteocalcin
  expression of osteocalcin: strongly induced the expression of osteocalcin
ERK, Akt, WNK1
  phosphorylation of signaling molecules such as ERK, Akt, WNK1: strongly increased the phosphorylation
Human MSCs
  calcium (Alizarin Red staining): induced calcium and mineral production
  mineral production (Von Kossa staining): induced calcium and mineral production
RUNX2 [3]; QG3030 0.1 μM alone, within 12 hours
  expression of RUNX2: significantly increased
[4]; [6]
  BMD: 0.2136 g/mL
  BV: 1.107 mm^3
  BV/TV: 6.713%
  TV: 16.57 mm^3
  Tb. N: 0.9472 1/mm
  Tb. Th: 0.07081 mm
[4]; [7]
  BMD: 0.2301 g/mL
  BV: 1.156 mm^3
  BV/TV: 7.731%
  TV: 14.92 mm^3
  Tb. N: 1.044 1/mm
  Tb. Th: 0.07492 mm
[4]; [8]
  bone mineral density compared to the negative control: significantly increased
  effect on bone mineral density compared with Forteo: significantly superior to that of Forteo
[4]; ovariectomized mice
  expression of RUNX2 in the femurs (tissue staining): significantly increased
  osteogenesis in the femurs (tissue staining): induced osteogenesis
BMP-2
  expression of BMP-2: strongly induced the expression
ERK [5]; QG3030 0.1 μM alone
  phosphorylation level of ERK: increased
Sprague Dawley (SD) rat; QG3030 low, medium and high concentrations, effect similar to BMP2
  tissue staining markers (H&E, collagen, type I collagen, osteocalcin) at bone defect sites: markers were expressed
Sprague Dawley (SD) rat; [9]
  bone quality by Tb.N and Tb.Sp (other than Tb.Th) compared to DMSO-treated group: high-quality bone tissue was statistically significantly formed
  bone volume/total volume (BV/TV) compared to negative control treated with DMSO: increased to a similar level
Sprague Dawley (SD) rat; no statistical significance
  quality of generated bone compared to BMP2: better quality of bone compared to BMP2

## COc1cccc(-c2cc(=O)c3ccccc3o2)c1N [PD98059, reference compound]
RUNX2 [3]; combination of QG3030 0.1 μM and PD98059 50 μM, 12 hours
  expression of RUNX2: significantly decreased
ERK [5]; combination of QG3030 0.1 μM and PD98059 50 μM
  increase in the phosphorylation level of ERK by QG3030: inhibited

## NCCCC(O)(P(=O)(O)O)P(=O)(O)O [Fosamax, reference compound]
[4]; [10]
  BMD: 0.2135 g/mL
  BV: 1.017 mm^3
  BV/TV: 6.521%
  TV: 15.51 mm^3

## CC[C@H](C)[C@H](NC(=O)[C@H](CCC(=O)O)NC(=O)[C@H](CO)NC(=O)[C@@H](NC(=O)[C@@H](N)CO)C(C)C)C(=O)N[C@@H](CCC(N)=O)C(=O)N[C@@H](CC(C)C)C(=O)N[C@@H](CCSC)C(=O)N[C@@H](Cc1cnc[nH]1)C(=O)N[C@@H](CC(N)=O)C(=O)N[C@@H](CC(C)C)C(=O)NCC(=O)N[C@@H](CCCCN)C(=O)N[C@@H](Cc1cnc[nH]1)C(=O)N[C@@H](CC(C)C)C(=O)N[C@@H](CC(N)=O)C(=O)N[C@@H](CO)C(=O)N[C@@H](CCSC)C(=O)N[C@@H](CCC(=O)O)C(=O)N[C@@H](CCCN=C(N)N)C(=O)N[C@H](C(=O)N[C@@H](CCC(=O)O)C(=O)N[C@@H](Cc1c[nH]c2ccccc12)C(=O)N[C@@H](CC(C)C)C(=O)N[C@@H](CCCN=C(N)N)C(=O)N[C@@H](CCCCN)C(=O)N[C@@H](CCCCN)C(=O)N[C@@H](CC(C)C)C(=O)N[C@@H](CCC(N)=O)C(=O)N[C@@H](CC(=O)O)C(=O)N[C@H](C(=O)N[C@@H](Cc1cnc[nH]1)C(=O)N[C@@H](CC(N)=O)C(=O)N[C@@H](Cc1ccccc1)C(=O)O)C(C)C)C(C)C [Forteo, reference compound]
[4]; [10]
  BMD: 0.1997 g/mL
  BV: 0.8791 mm^3
  BV/TV: 5.735%
  TV: 15.43 mm^3
